Here are results for four compounds from patent US11498915B2, “TrkA Inhibitor” (Eli Lilly and Company, priority 2020, dated 2022).

A value given as a limit tells only on which side of the number the result lay.

The target in assay [1] is T1, hTrkA (Homo sapiens, UniProt P04629). As to the kind of experiment: PathHunter cell-based assay, inhibition of SH2 domain protein recruitment, hTrkA-p75 U2OS cells. Also on record: host or cells: U2OS (human bone osteosarcoma epithelial cells), PathHunter hTrkA-p75. An excerpt: (§1) In Vitro Inhibition of SH2 Domain Protein Recruitment in Human Bone Osteosarcoma Epithelial Cells by Human Tropomyosin Receptor Kinase (hTrk) Inhibitors
(§2) Activation of hTrkA, TrkB or TrkC is examined using PathHunter® (DiscoverX) enzyme fragment complementation technology. In this approach, one fragment of β-galactosidase (β-gal) ProLink (PK) is fused to the C-terminal of the Trk receptor and co-expressed with a phosphotyrosine SH2 domain protein fused with the remaining fragment of β-gal, Enzyme Acceptor (EA), in human Bone Osteosarcoma Epithelial (hU2OS) cells also expressing the p75 neurotrophic receptor (DiscoverX). Activation of hTrk receptors by agonists results in receptor phosphorylation. The SH2-EA fusion protein binds the phosphorylated hTrk receptor resulting in complementation of PK and EA to form an active β-gal enzyme. β-gal enzymatic activity is quantitatively measured using a chemiluminescent substrate in the PathHunter® detection kit (DiscoverX). […]
(§3) Inhibition of hTrk kinase activity: The activity of hTrkA and hTrkC kinase is quantitated using Pathhunter® technology (DiscoverX) as per vendor instructions.
(§4) Briefly, on the assay day, compounds for dose-response studies are serially diluted in dimethyl sulfoxide (1:3 for 10 concentrations) using an acoustic dispensing instrument Echo Access (Labcyte) and dispensed into cell plates that are subsequently incubated at room temperature (RT) for one hour. […] Pathhunter® detection reagents (DiscoverX) are added and plates are read in an ENVISION® plate reader (Perkin-Elmer) at 700 nm after 1 h incubation at RT in the dark. […]
(§5) Data Analysis: The data are converted into % Inhibition and relative IC50 values are calculated from the top-bottom range of the concentration response curve using a four-parameter logistic curve fitting program (GENEDATA SCREENER® v13.0.5) with the equation Y=Bottom+(Top-Bottom)/(1+10^((Log IC50−X)*HillSlope)). […]
Target sequence in this assay (P04629 33-796): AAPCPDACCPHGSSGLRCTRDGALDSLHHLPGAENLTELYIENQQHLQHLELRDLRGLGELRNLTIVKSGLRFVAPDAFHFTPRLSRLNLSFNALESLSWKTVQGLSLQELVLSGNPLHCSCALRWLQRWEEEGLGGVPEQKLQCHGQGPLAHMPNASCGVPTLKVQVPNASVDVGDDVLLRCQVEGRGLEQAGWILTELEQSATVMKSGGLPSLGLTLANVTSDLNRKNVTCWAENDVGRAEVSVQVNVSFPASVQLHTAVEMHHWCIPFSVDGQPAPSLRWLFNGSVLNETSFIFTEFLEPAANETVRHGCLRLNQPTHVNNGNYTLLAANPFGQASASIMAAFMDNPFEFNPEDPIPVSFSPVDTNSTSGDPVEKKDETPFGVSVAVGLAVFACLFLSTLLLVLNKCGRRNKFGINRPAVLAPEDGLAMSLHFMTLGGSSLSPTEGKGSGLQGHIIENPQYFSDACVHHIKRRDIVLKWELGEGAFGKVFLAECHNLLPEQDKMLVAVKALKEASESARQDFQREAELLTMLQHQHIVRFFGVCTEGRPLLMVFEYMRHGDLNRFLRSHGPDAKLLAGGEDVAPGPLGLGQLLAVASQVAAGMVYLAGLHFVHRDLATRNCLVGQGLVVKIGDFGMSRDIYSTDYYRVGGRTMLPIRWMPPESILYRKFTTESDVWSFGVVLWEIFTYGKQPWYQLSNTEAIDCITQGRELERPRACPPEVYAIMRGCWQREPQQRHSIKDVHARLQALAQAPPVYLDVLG

Assay [2] deals with T2, hTrkB (Homo sapiens, UniProt Q16620). As to the kind of experiment: PathHunter cell-based assay, inhibition of SH2 domain protein recruitment, hTrkB-p75 U2OS cells. Also on record: host or cells: U2OS (human bone osteosarcoma epithelial cells), PathHunter hTrkB-p75.
From the text: as §1, §2, §3, §4, §5
Target sequence in this assay (Q16620 32-822): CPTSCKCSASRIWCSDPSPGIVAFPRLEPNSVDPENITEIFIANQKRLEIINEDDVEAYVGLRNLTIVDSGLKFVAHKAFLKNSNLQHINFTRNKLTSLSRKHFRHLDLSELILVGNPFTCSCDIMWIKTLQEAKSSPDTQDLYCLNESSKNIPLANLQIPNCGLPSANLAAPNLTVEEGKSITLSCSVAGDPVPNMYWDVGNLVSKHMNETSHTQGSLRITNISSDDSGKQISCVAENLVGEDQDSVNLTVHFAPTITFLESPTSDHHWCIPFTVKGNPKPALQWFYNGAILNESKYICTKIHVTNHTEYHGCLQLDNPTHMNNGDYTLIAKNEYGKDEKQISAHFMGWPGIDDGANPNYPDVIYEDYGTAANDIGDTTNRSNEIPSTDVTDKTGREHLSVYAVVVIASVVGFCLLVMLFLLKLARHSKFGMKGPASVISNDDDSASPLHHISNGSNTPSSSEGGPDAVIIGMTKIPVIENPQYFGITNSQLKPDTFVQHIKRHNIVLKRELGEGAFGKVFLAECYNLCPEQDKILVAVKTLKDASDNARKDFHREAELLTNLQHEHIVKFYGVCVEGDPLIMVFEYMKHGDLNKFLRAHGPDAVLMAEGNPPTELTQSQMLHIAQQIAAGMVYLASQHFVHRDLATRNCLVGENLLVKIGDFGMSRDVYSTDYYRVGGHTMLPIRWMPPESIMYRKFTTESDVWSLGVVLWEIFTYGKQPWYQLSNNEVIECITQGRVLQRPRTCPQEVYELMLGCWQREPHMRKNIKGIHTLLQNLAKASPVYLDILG

In assay [3] the target is T3, hTrkC (Homo sapiens, UniProt Q16288). In words: PathHunter cell-based assay, inhibition of SH2 domain protein recruitment, hTrkC-p75 U2OS cells. More on the design: host or cells: U2OS (human bone osteosarcoma epithelial cells), PathHunter hTrkC-p75.
From the text: as §1, §2, §3, §4, §5
Target sequence in this assay (Q16288 32-839): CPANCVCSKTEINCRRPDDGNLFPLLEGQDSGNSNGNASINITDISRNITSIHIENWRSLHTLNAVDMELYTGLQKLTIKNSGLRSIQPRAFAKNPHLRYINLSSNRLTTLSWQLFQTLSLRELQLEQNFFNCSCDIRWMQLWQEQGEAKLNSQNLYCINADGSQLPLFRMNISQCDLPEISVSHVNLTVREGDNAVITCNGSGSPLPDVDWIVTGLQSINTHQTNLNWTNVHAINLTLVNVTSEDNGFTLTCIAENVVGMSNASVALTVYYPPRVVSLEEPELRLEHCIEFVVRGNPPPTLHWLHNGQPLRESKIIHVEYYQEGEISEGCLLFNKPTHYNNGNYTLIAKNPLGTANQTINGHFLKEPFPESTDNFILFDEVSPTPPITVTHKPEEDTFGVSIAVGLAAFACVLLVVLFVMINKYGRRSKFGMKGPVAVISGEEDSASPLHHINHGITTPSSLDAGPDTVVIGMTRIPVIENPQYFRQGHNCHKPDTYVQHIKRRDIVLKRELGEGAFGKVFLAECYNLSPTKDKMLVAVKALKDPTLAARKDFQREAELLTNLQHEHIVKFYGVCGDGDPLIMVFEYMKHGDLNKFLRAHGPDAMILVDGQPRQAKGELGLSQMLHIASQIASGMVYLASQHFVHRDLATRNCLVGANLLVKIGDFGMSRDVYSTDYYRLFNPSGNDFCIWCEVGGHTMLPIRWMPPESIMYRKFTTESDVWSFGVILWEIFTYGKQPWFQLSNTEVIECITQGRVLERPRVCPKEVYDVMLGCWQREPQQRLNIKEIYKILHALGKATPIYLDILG

The target in assay [4] is Trk A (Homo sapiens, UniProt P04629). As to the kind of experiment: Trk A IC50 values listed in Table 2 of U.S. Pat. No. 9,815,846. As to conditions: 14 divided by 0.069; phenyl ring versus pyridine ring.
Chain of Trk A (P04629 33-796, species assumed): as the sequence (P04629 33-796) above
In assay [5] the target is T1, hTrkA. As to the kind of experiment: hTrk kinase TR-FRET assay (headed Binding Assays), hTrkA kinase domain. The class given is biochemical. Also on record: hTrkA, aa: 441-796. Conditions: hTrkA kinase domain aa 441-796, N = 4, read-out: Relative IC50 hTrkA, Binding Assays. The text has this: (§6) Human Tropomyosin Receptor Kinase (hTrkA, hTrkB, hTrkC) Assays to Examine hTrk Kinase Inhibitors
(§7) The reaction of non-phosphorylated hTrk kinase domains (hTrkA, aa: 441-796, hTrkB, aa: 526-838 or hTrkC, aa: 510-825) with a fluorescein-labeled poly-GT substrate (poly-GT, Invitrogen) generates a fluorescein-labeled phosphorylated product. Binding of the terbium-labeled antibody (Invitrogen) to the phosphorylated tyrosine product brings the terbium and fluorescein into proximity, resulting in an increase in time-resolved fluorescence resonance energy transfer (TR-FRET). In the presence of an inhibitor, formation of phosphorylated product is reduced, and the TR-FRET value is decreased.
(§8) Inhibition of hTrk kinase activity: The activity of human tropomyosin receptor hTrk kinase is quantitated using TR-FRET technology (Invitrogen) as per vendor instructions. Briefly, compounds for dose-response studies are serially diluted in dimethyl sulfoxide (1:2 for 20 concentrations) using an acoustic dispensing instrument Echo Access (Labcyte) and dispensed into ProxiPlate-384 plus plates (PerkinElmer). […] EDTA and terbium-labeled antibody are added and plates are incubated at RT for one hour after which the TR-FRET signal is detected using an ENVISION® plate reader (Perkin-Elmer). The ratio of fluorescence at 520 to 495 nm is calculated. […]
Target sequence in this assay (P04629 441-796): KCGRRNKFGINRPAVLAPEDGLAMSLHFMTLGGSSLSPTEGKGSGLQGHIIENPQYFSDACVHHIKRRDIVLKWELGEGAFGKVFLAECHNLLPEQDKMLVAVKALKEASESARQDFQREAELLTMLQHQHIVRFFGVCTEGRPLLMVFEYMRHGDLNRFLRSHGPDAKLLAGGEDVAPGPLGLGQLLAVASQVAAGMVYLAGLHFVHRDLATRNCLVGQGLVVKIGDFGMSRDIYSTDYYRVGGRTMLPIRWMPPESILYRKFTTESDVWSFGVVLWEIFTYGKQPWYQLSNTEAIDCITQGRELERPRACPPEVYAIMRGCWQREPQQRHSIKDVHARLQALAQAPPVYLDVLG

Assay [6] concerns the target T2, hTrkB. As to the kind of experiment: hTrk kinase TR-FRET assay (headed Binding Assays), hTrkB kinase domain. The class given is biochemical. Also on record: hTrkB, aa: 526-838. Conditions: hTrkB kinase domain aa 526-838, N = 1, read-out: Relative IC50 hTrkB, Binding Assays.
From the text: as §6, §7, §8
Target sequence in this assay (Q16620 510-822): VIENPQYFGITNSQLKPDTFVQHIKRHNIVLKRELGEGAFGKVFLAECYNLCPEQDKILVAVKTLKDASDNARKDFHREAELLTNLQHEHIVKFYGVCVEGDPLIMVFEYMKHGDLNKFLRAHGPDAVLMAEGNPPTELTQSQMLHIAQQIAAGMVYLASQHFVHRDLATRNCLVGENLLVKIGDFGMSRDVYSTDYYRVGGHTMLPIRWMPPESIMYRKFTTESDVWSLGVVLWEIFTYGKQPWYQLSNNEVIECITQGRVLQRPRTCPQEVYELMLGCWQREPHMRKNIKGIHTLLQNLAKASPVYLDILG

The target of assay [7] is T3, hTrkC. As to the kind of experiment: hTrk kinase TR-FRET assay (headed Binding Assays), hTrkC kinase domain. In kind it is biochemical. Also on record: hTrkC, aa: 510-825. Conditions: hTrkC kinase domain aa 510-825, N = 1, read-out: Relative IC50 hTrkC, Binding Assays.
From the text: as §6, §7, §8
Target sequence in this assay (Q16288 510-825 isoform Q16288-3): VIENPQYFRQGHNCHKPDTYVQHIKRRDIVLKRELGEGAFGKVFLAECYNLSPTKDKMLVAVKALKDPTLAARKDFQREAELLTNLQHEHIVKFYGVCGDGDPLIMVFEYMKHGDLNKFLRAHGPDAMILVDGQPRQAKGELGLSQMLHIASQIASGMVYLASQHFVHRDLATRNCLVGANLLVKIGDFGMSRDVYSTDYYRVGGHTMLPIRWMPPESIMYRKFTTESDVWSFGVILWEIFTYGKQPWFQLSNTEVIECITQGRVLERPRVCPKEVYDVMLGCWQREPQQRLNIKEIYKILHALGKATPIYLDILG

Where [8] appears, read: Table 2 comparative data, Example 1 values are the PathHunter values of Table 1, read-out: hTrkA IC50.
The mark [9] stands for this setting: Table 2 comparative data, Example 1 values are the PathHunter values of Table 1, read-out: hTrkB IC50.
Where [10] appears, read: Table 2 comparative data, Example 1 values are the PathHunter values of Table 1, read-out: hTrkC IC50.

Take `Cn1ccc(-c2cc(C(=O)Nc3cc(C(N)=O)cnc3-c3ccccc3)ccc2C(F)(F)F)n1` [Example 89 of US Patent No. 9815846]: the IC50 in assay [1] (setting [8]) was 1.55 nM; in assay [2] (setting [9]), 713 nM; in assay [3] (setting [10]), 452 nM.

As for `Cn1ccc(-c2cc(C(=O)Nc3cc4c(nc3-c3ccccc3)CCNC4=O)c(F)cc2C(F)(F)F)n1` [Example 152], in assay [4], the “effect on the potency at TrkA, Example 141 IC50 divided by Example 152 IC50” value came out at 202.9 fold.

On to `Cn1ccc(-c2cc(C(=O)Nc3cc4c(nc3-c3ccccn3)CCNC4=O)c(F)cc2C(F)(F)F)n1` [Example 141 of US Patent No. 9815846], for which the concentration for half-maximal inhibition (IC50) is 11.1 nM in assay [1] (setting [8]), above 47900 nM in assay [2] (setting [9]) and 37800 nM in assay [3] (setting [10]).

With `Cn1ccc(-c2cc(C(=O)Nc3cncc(C(N)=O)c3-c3ccccn3)c(F)cc2C(F)(F)F)n1` [Example 1, 5-[[2-fluoro-5-(1-methylpyrazol-3-yl)-4-(trifluoromethyl)benzoyl]amino]-4-(2-pyridyl)pyridine-3-carboxamide], the IC50 is 1.09 nM in assay [5]; above 4290 nM in assay [6]; 8360 nM in assay [7]; 1.24 nM in assay [1] (hU2OS hTrkA-p75 cells, hNGF 27 ng/ml, N = 32, read-out: Relative IC50 hTrkA, PathHunter cell-based assay); 6700 nM in assay [2] (hU2OS hTrkB-p75 cells, hBDNF 20 ng/ml, N = 25, read-out: Relative IC50 hTrkB, PathHunter cell-based assay); 9010 nM in assay [3] (hU2OS hTrkC-p75 cells, hNT-3 29 ng/ml, N = 24, read-out: Relative IC50 hTrkC, PathHunter cell-based assay).
